Values quoted from earlier work in patent US20130142849A1 (LUPIN LIMITED, priority 2010, published 2013).
Like-named read-outs stand apart in the source and are kept apart here.

CCCCc1oc2ccc(NS(C)(=O)=O)cc2c1C(=O)c1ccc(OCCCN(CCCC)CCCC)cc1.Cl [Dronedarone, N-{2-butyl-3-[4-(3-dibutylaminopropoxy)benzoyl]benzofuran-5-yl}methane sulfonamide, hydrochloride]
absolute oral bioavailability (administered with a high fat meal): approx. 15%
absolute oral bioavailability (fasting): 4%
